In this test the target is T1, Phospholipase A2, membrane associated (Homo sapiens, UniProt P14555).
T1 sequence (P14555 whole entry): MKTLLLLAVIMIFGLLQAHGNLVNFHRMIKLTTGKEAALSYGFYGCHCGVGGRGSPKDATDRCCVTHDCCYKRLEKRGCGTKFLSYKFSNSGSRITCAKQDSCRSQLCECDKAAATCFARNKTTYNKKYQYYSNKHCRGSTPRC
Nature of the test: Inhibition of human nonpancreatic secretory phospholipase A2.

Here are results for eleven compounds from ChEMBL document CHEMBL1150777, “Chemically induced dimerization of human nonpancreatic secretory phospholipase A2 by bis-indole derivatives” (J Med Chem, 2008).

`COc1ccc2c(c1)c(CC(N)=O)c(C)n2Cc1ccccc1` came in with an IC50 of 540 nM. The same measure for `COc1ccc2c(c1)c(CC(N)=O)c(C)n2Cc1ccccc1OCCCCCCCOc1ccccc1Cn1c(C)c(CC(N)=O)c2cc(OC)ccc21`: 52 nM; for `COc1ccc2c(c1)c(CC(N)=O)c(C)n2Cc1ccccc1OCCCCCOc1ccccc1Cn1c(C)c(CC(N)=O)c2cc(OC)ccc21`: 24 nM. As to `COc1ccc2c(c1)c(CC(N)=O)c(C)n2Cc1ccc(OCCCCCOc2ccc(Cn3c(C)c(CC(N)=O)c4cc(OC)ccc43)cc2)cc1`, the IC50 came out at 86 nM. Regarding `COc1ccc2c(c1)c(CC(N)=O)c(C)n2Cc1ccccc1OCCCCOc1ccccc1Cn1c(C)c(CC(N)=O)c2cc(OC)ccc21`, the IC50 came out at 60 nM. `COc1ccc2c(c1)c(CC(N)=O)c(C)n2Cc1ccccc1OCCCCCCCCCOc1ccccc1Cn1c(C)c(CC(N)=O)c2cc(OC)ccc21` registered an IC50 of 49 nM. Compound `COc1ccc2c(c1)c(CC(N)=O)c(C)n2Cc1ccccc1OCCCCCCCCOc1ccccc1Cn1c(C)c(CC(N)=O)c2cc(OC)ccc21` displayed an IC50 of 58 nM. In the case of `COc1ccc2c(c1)c(CC(N)=O)c(C)n2Cc1cccc(OCCCCCOc2cccc(Cn3c(C)c(CC(N)=O)c4cc(OC)ccc43)c2)c1`, the IC50 was 76 nM. Regarding `COc1ccc2c(c1)c(CC(N)=O)c(C)n2Cc1ccccc1OCCCOc1ccccc1Cn1c(C)c(CC(N)=O)c2cc(OC)ccc21`, the IC50 stood at 48 nM. Against the preceding compound, the IC50 is about 1.6-fold lower. Consider `COc1ccc2c(c1)c(CC(N)=O)c(C)n2Cc1ccccc1OCCCCCCOc1ccccc1Cn1c(C)c(CC(N)=O)c2cc(OC)ccc21`, for which the IC50 worked out at 39 nM.

The compound `CCCCCOc1ccccc1Cn1c(C)c(CC(N)=O)c2cc(OC)ccc21` yielded an IC50 of 120 nM.

One may read the IC50 as the concentration needed to halve the response being measured. Read a high IC50 as lower potency.
